Assay results reported in patent publication US12042479B2, “Use of topical formulations of cannabinoids in the treatment of epidermolysis bullosa and related connective tissue disorders” (priority 2016, dated 2024).
Entries after “also recorded” stand apart in the source; their conditions may differ. Like-named read-outs stand apart in the source and are kept apart here.

Experiments:
CB1 receptor = CB1 receptor expression by human fibroblasts under TGFβ1 (western blot); type: cell-based; settings: CB1 receptor/HSP90 ratio, FIG. 22
αSMA = test: TGFβ1-induced αSMA expression in human fibroblasts (immunoblot); type: cell-based; settings: αSMA/HSP90 ratio, FIG. 23
Experimental: Experimental Design: HaCaT and HFL-1 cells cultured in 24-well plates (1×10^5 cells/well/mL) in DMEM supplemented with 1% FBS and antibiotics/antimycotics in the presence of INM-501, INM-509, INM-505, INM-506, INM-513 (cannabigerol (CBG)), INM-517, HU-210 ((6aR,10aR)-9-(hydroxymethyl)-6,6-dimethyl-3-(2-methyloctan-2-yl)-6H,6aH,7H,10H,10aH-benzo[c]isochromen-1-ol)), and SR144528 (all at 1 μM concentration, EchoPharmaceuticals, AT Nijmegen, The Netherlands, Cayman Chemical, Ann Arbor, MI) alone or with simultaneously added human recombinant TGFβ1 at 10 and 20 ng/ml concentrations for 72 hr. Cell culture supernatants were removed and cells were lyzed with Cell Protein Extraction Buffer supplemented with Proteinases/Phosphatases Inhibitors Cocktail. […]
(§1) Assay Procedures: EMT induced by TGFβ1 in keratinocytes was analyzed by expression of human E-Cadherin (E-CDH) and Cellular Fibronectin (FBN-EDA). Fibroblast activation and differentiation was determined by αSMA expression. E-CDH, FBN-EDA and αSMA proteins were determined by SDS-PAGE and Immunobloting using mouse anti-human E-CDH, FBN-EDA and αSMA monoclonal antibodies. […] Density of the bands was quantified in two infrared channels independently using Odyssey software 2.1 (LI-COR Biosciences). The results are expressed as a protein/β-tubulin/HSP90 density ratio.

CCL2/MCP-1 = type: cell-based, human
[1] = Skin penetration, Franz diffusion cell; type: in vitro ADME, porcine; settings: after 18 hours at 32° C.; 400 μg applied; LABRASOL/Plo-gel formulation; FIG. 18
Experimental: Skin penetration of formulations described herein was measured according to the following procedure: the formulation was LABRASOL® (caprylocaproyl polyoxyl-8 glycerides), Plo-gel (Poloxomer 407, Lecithin, isopropyl palmitate). The formulation is applied to the center part of the circle and is rubbed to the skin using a […]. The sample is mounted to the top of a Franz diffusion cell with the outer layer of the skin facing upward. The receptor medium of the Franz cell is filled with phosphate buffer. The cap of the cell is mounted and clamped. This construct is placed inside the incubator/shaker for 18 hours at 32° C. (FIG. 14).

IL-8 = IL-8 production by human keratinocytes; type: cell-based; settings: basal, FIG. 13
IL-6 = test: IFNγ/TNFα-induced IL-6 production by human keratinocytes; type: cell-based; settings: FIG. 13
[2] = test system: keratins K5, K6, K14, K15, K16, K17; test: Keratin expression in HaCaT keratinocytes by Western blot; type: cell-based, human; settings: for expression of K15: Western blot, cells pretreated with IFNγ/TNFα, FIG. 6 right; for K5 protein expression / K14 protein expression / K15 protein expression / K16 protein expression / K17 protein expression: post-differentiating human keratinocyte cells, concentration dependent effect, FIG. 20
Experimental: Cell culturing was performed as follows: HaCaT, human immortalized keratinocyte cell line was cultured in Dulbecco's Modified Eagle Medium (DMEM; Life Technologies Hungary Ltd.) supplemented with 10 (V/V) % fetal bovine serum (FBS; Life Technologies Hungary Ltd.) and antibiotics mixture (penicillin and streptomycin in 1:100; PAA Laboratories GmbH, Pasching, Austria) and Fungizone® Antimicotic (in 1:200; Life Technologies Hungary Ltd.) respectively.
Cells were cultured at 37° C. in humidified, 5% CO2-containing atmosphere, the medium was changed every other day, and cells were sub-cultured at 70-80% confluence in all cases. For the drug treatment, the medium was changed every day.
Western blotting was used to determine the expression of keratins in HaCaT cells. The initial cell count was 2×10^5 cells/per Petri dish in “small” (d=35 mm) Petri dishes in 1.5 mL culture medium (DMEM supplemented with FBS (10%), antibiotics and antimycotics). Cells were harvested at the following stages: preconfluent (proliferating) and postconfluent (differentiating). The combinations employed for Western blotting were cannabidiols:cannabinol (1:0.1 μM), cannabidiols:cannabinol (0.1:1 μM), and cannabidiols:cannabinol (1:1 μM). The genes whose expression was investigated by Western blotting were GAPDH or β-actin as internal controls and (K1), K5, K6, (K10), K14, K15, K16, and K17. Protein samples were used at 5 μl/well. The standards used were PageRuler Plus Prestained (Pierce). Electrophoresis was at 100 volts.
Transfer was performed using the Trans-Blot® Turbo™ Transfer System (1.3 A, 25 V, 7 min). The primary antibody was used at 1:100 in 5% milk containing PBS; overnight at 4° C.; the primary antibody was guinea pig anti-human keratins: anti human Keratin 1, Keratin 5, Keratin 6, Keratin 14, Keratin 15, Keratin 16, Keratin 17 (from Lutz Langbein; predicted band: […]). The secondary antibody was used at 1:1000 in 5% milk containing PBS; 1 hr at RT; the secondary antibody was HRP-conjugated goat anti-Guinea Pig IgG (Santa Cruz). The loading controls were Rabbit anti-human GAPDH (Novus Biologicals; Cat. No.: NB300-322; predicted band: ˜37 kDa) or anti-human β-actin (Sigma-Aldrich; Cat. No.: A2668; predicted band: ˜42 kDa) 1:1000 in 5% milk containing PBS. HRP-conjugated goat anti-rabbit IgG Fc-segment (BioRad 170-6515; 1:1000) was used.
For statistical analysis, data were analyzed and graphs were plotted by using Origin Pro Plus 6.0 software (Microcal, Northampton, MA, USA), using Student's two-tailed two samples t-test and P<0.05 values were regarded as significant differences.

[3] = test system: keratins K5, K6, K14, K15, K16, K17; test: as above; type: cell-based, human; settings: 10 μM
fibronectin-EDA = test: TGFβ1-induced fibronectin-EDA expression in HaCaT keratinocytes (immunoblot); type: cell-based; settings: human keratinocytes; fibronectin-EDA/β-tubulin ratio; FIG. 21, 25
From the text: (§2) For western blotting in the wound healing analysis, epithelial-mesenchymal transition (EMT) is a critical element of epithelial biology, cancer development, and fibrosis. Chronic activation of TGF-β-signaling in the skin ultimately leads to fibrosis (keloid). EMT of keratinocytes is adaptive response in the normal wound healing process. It is characterized by decrease of E-cadherin (important element of keratinocyte integrity and tight junction formation) expression and upregulation of cellular fibronectin (Fibronectin-EDA) production. The latter is a very important protective element of epithelial cells during mucosal tissue repairs.
(§3) Total protein extracts were prepared from synchronized HaCaT cells at different times. […]
as §1

E-cadherin = test: TGFβ1-induced E-cadherin inhibition in HaCaT keratinocytes (immunoblot); type: cell-based; settings: human keratinocytes; E-cadherin/β-tubulin ratio; FIG. 21, 24
From the text: as §2, §3, §1

Compound: Cc1c(C(=O)NN2CCCCC2)nn(-c2ccc(Cl)cc2Cl)c1-c1ccc(I)cc1 [AM251, N-(piperidin-1-yl)-5-(4-iodophenyl)-1-(2,4-dichlorophenyl)-4-methyl-1H-pyrazole-3-carboxamide]
- cell responsiveness to TGFβ1 (CB1 receptor): modify
- TGFβ1-induced αSMA expression (TGFβ1-responsiveness) (αSMA): upregulating

Compound: COc1ccc(C(=O)c2c(C)n(CCN3CCOCC3)c3cc(I)ccc23)cc1 [AM630, 6-iodopravadoline]
- cell responsiveness to TGFβ1 (CB1 receptor): modify

Compound: CCCCCCC(C)(C)c1cc(O)c2c(c1)OC(C)(C)[C@@H]1CC=C(CO)C[C@@H]21 [HU-210, (6aR,10aR)-9-(hydroxymethyl)-6,6-dimethyl-3-(2-methyloctan-2-yl)-6H,6aH,7H,10H,10aH-benzo[c]isochromen-1-ol]
- IFNγ/TNFα-induced CCL2/MCP-1 production (CCL2/MCP-1): upregulated; also recorded: highest effect; also recorded: increase

Compound: C=C(C)[C@@H]1CCC(C)=C[C@H]1c1c(O)cc(CCCCC)cc1O [INM-505, cannabidiols]
- location of cannabinoid molecules in skin [1]: located in keratinocytes and basal cells
- IL-8 production (IL-8): highly selective inhibitory effect
- production of IL-6 by IFNγ/TNFα (IL-6): attenuate
- expression of K15 [2]: promote
- K5 protein expression [2]: generally increases
- K14 protein expression [2]: generally increases
- K15 protein expression [2]: generally increases
- K16 protein expression [2]: generally increases
- K17 protein expression [2]: generally increases
- IFNγ/TNFα-induced CCL2/MCP-1 production (CCL2/MCP-1): upregulated; also recorded: increase

Compound: CCCCCc1cc(O)c(C/C=C(\C)CCC=C(C)C)c(O)c1 [INM-513, cannabigerol]
- IFNγ/TNFα-induced CCL2/MCP-1 production (CCL2/MCP-1): upregulated

Compound: CCCCCc1cc(O)c2c(c1)OC(C)(C)c1ccc(C)cc1-2 [INM-517, 6,6,9-trimethyl-3-pentylbenzo[c]chromen-1-ol]
- K14 gene expression [3]: downregulated
- TGF-β-induced fibronectin-EDA expression (fibronectin-EDA): preserving
- TGF-β-induced downregulation of E-cadherin (E-cadherin): strong and potent effect
- expression of K15 [2]: promote
- K5 protein expression [2]: generally increases
- K14 protein expression [2]: generally increases
- K15 protein expression [2]: generally increases
- K16 protein expression [2]: generally increases
- K17 protein expression [2]: generally increases

Compound: Cc1ccc(Cn2nc(C(=O)N[C@@H]3C(C)(C)[C@@H]4CC[C@@]3(C)C4)cc2-c2ccc(Cl)c(C)c2)cc1 [SR144528, 5-(4-chloro-3-methylphenyl)-1-[(4-methylphenyl)methyl]-N-[(1S,2S,4R)-1,3,3-trimethylbicyclo[2.2.1]heptan-2-yl]-1H-pyrazole-3-carboxamide]
- basal CCL2 production (CCL2/MCP-1; HaCaT, 72 hr, method prints 1 mM, b249 prints 1 μM): did not significantly change
- IFNγ/TNFα-induced CCL2/MCP-1 production (CCL2/MCP-1; HaCaT, IFNγ and TNFα 10 ng/ml, 72 hr, method prints 1 mM, b249 prints 1 μM): did not significantly change

Compound: CCCCCc1cc(O)c2c(c1)OC(C)(C)[C@@H]1CCC(C)=C[C@@H]21 [Δ^9-tetrahydrocannabinol]
- IFNγ/TNFα-induced CCL2/MCP-1 production (CCL2/MCP-1): no significant effects
- basal CCL2 production (CCL2/MCP-1): no significant effects
